Laboratory results from patent US20230095836A1, “SUBSTITUTED 5,6-DIPHENYL-3(2H)-PYRIDAZINONES FOR USE AS FUNGICIDES” (FMC Corporation, priority 2020, published 2023).

What was measured:
Format in all cases: in vivo
Zymoseptoria tritici = assay: Test A: test solution sprayed on wheat seedlings, inoculated next day with Zymoseptoria tritici (wheat leaf blotch); disease rating (100 = 100% disease control, 0 = no control; dash = not tested)
How it was run: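 Preventive spray test: compound applied to run-off one day before spore inoculation of wheat seedlings. Incubation was 48 h saturated humidity at 24° C followed by 17 days at 20° C. Disease then scored 0–100 as % control versus untreated plants.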

[1] = tested on: Puccinia recondita f. sp. tritici; assay: Test B: test solution sprayed on wheat seedlings, inoculated next day with Puccinia recondita f. sp. tritici (wheat leaf rust); disease rating (100 = 100% disease control, 0 = no control; dash = not tested)
Source text: The resulting test suspensions were then used in Tests A-F. The test solution was sprayed to the point of run-off on wheat seedlings. […] A rating of 100 indicates 100% disease control and a rating of 0 indicates no disease control (relative to the controls). A dash (—) indicates the compound was not tested.

[2] = tested on: Blumeria graminis f. sp. tritici; assay: Test C: test suspension sprayed on wheat seedlings, inoculated next day with Blumeria graminis f. sp. tritici (wheat powdery mildew); visual disease rating (100 = 100% disease control, 0 = no control; dash = not tested)
How it was run: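 Visual ratings of disease control (0–100, relative to controls) were made 8 days after inoculation with B. graminis f. sp. tritici spore dust. Plants were held at 20 °C. Compound was applied as a spray to run-off one day before inoculation.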

Phakopsora pachyrhizi = assay: Test D: test solution sprayed on soybean seedlings, inoculated next day with Phakopsora pachyrhizi (Asian soybean rust); visual disease rating (100 = 100% disease control, 0 = no control; dash = not tested)
How it was run: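 Preventive spray test: soybean seedlings treated to run-off with ppm-level suspensions (acetone/water 50/50, 250 ppm PEG400), spore-inoculated one day later. Held 24 h at 22 °C in saturated air, then 8 days at 22 °C; disease control scored visually versus untreated plants, 0 = none, 100 = complete.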

Botrytis cinerea = assay: Test E: test suspension sprayed on tomato seedlings, inoculated next day with Botrytis cinerea (tomato Botrytis); visual disease rating (100 = 100% disease control, 0 = no control; dash = not tested)
How it was run: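 Spores were applied one day after spraying the seedlings to run-off. Incubation was 48 h saturated at 20° C, then 3 days in a 24° C growth chamber. Visual ratings, relative to untreated controls, run from 0 (no control) to 100 (complete control).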

Alternaria solani = assay: Test F: test suspension sprayed on tomato seedlings, inoculated next day with Alternaria solani (tomato early blight); visual disease rating (100 = 100% disease control, 0 = no control; dash = not tested)
How it was run: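 Visual ratings of % disease control versus controls were made after inoculated plants spent 48 h at 27° C. in saturated air plus 3 days at 20° C. The compound suspension had been sprayed to run-off one day before spore inoculation.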

| Structure (SMILES) | Test A disease control rating (Zymoseptoria tritici; 50 ppm) | Test B disease control rating ([1]; 50 ppm) | Test C disease control rating ([2]; 50 ppm) | Test D disease control rating (Phakopsora pachyrhizi; 50 ppm) | Test E disease control rating (Botrytis cinerea; 50 ppm) | Test F disease control rating (Alternaria solani; 50 ppm) | also measured |
| --- | --- | --- | --- | --- | --- | --- | --- |
| COc1ccc(Cl)c(-c2nn(C)c(=O)c(OC)c2-c2ccc(F)cc2Br)c1 [Compound 103] | 100% | 100% | 100% | 97% | 91% | 99% | – |
| CCn1nc(-c2cc(OC)cc(OC)c2)c(-c2c(F)cccc2F)c(Cl)c1=O [Compound 1] | – | – | – | – | – | – | Test A disease control rating (Zymoseptoria tritici; 250 ppm): 87%; Test B disease control rating ([1]; 250 ppm): 55%; Test C disease control rating ([2]; 250 ppm): 0%; Test D disease control rating (Phakopsora pachyrhizi; 250 ppm): 0%; Test E disease control rating (Botrytis cinerea; 250 ppm): 90%; Test F disease control rating (Alternaria solani; 250 ppm): 0% |
| CCn1nc(-c2c(F)cccc2F)c(-c2cc(OC)cc(OC)c2)c(Cl)c1=O [Compound 10, 4-chloro-6-(2,6-difluorophenyl)-5-(3,5-dimethoxyphenyl)-2-ethyl-3(2H)-pyridazinone] | – | – | – | – | – | – | pest or weed control at 250 ppm (Zymoseptoria tritici; 250 ppm): 0%; pest or weed control at 250 ppm ([1]; 250 ppm): 0%; pest or weed control at 250 ppm ([2]; 250 ppm): 0%; pest or weed control at 250 ppm (Phakopsora pachyrhizi; 250 ppm): 0%; pest or weed control at 250 ppm (Botrytis cinerea; 250 ppm): 0%; pest or weed control at 250 ppm (Alternaria solani; 250 ppm): 0% |
| Cn1nc(-c2cccc(F)c2F)c(-c2ccc(F)cc2Cl)c(Cl)c1=O [Compound 107] | 100% | 100% | 100% | 100% | 97% | 100% | – |
| Cn1nc(-c2ccccc2Cl)c(-c2ccc(F)cc2Cl)c(Cl)c1=O [Compound 73] | 100% | 100% | 99% | 97% | 99% | 99% | – |
| COc1ccc(Cl)c(-c2nn(C)c(=O)c(Cl)c2-c2ccc(C#N)cc2Cl)c1 [Compound 186] | 99% | 100% | 97% | 99% | 90% | 100% | – |
| COc1c(-c2ccc(F)cc2Cl)c(-c2cccc(Cl)c2Cl)nn(C)c1=O [Compound 108] | 100% | 100% | 100% | 70% | 98% | 99% | – |
| COc1ccc(Cl)c(-c2nn(C)c(=O)c(OC)c2-c2ccc(F)cc2F)c1 [Compound 48] | 100% | 100% | 99% | 97% | 98% | 99% | – |
| COc1cccc(-c2nn(C)c(=O)cc2-c2c(F)cccc2F)c1Cl [Compound 30] | – | – | – | – | – | – | Test A disease control rating (Zymoseptoria tritici; 250 ppm): 100%; Test B disease control rating ([1]; 250 ppm): 99%; Test C disease control rating ([2]; 250 ppm): 84%; Test D disease control rating (Phakopsora pachyrhizi; 250 ppm): 98%; Test E disease control rating (Botrytis cinerea; 250 ppm): 100%; Test F disease control rating (Alternaria solani; 250 ppm): 41% |
| Cn1nc(-c2ccccc2)c(-c2ccc(F)cc2Cl)c(Cl)c1=O [Compound 141, 4-chloro-5-(2-chloro-4-fluorophenyl)-2-methyl-6-phenyl-3(2H)-pyridazinone] | – | – | – | – | – | – | pest or weed control at 50 ppm (Zymoseptoria tritici; 50 ppm): 99%; pest or weed control at 50 ppm ([1]; 50 ppm): 98%; pest or weed control at 50 ppm ([2]; 50 ppm): 99%; pest or weed control at 50 ppm (Phakopsora pachyrhizi; 50 ppm): 0%; pest or weed control at 50 ppm (Botrytis cinerea; 50 ppm): 98%; pest or weed control at 50 ppm (Alternaria solani; 50 ppm): 99% |
| CCc1c(-c2ccc(F)cc2Cl)c(-c2c(Cl)c(OC)cc(OC)c2Br)nn(C)c1=O [Compound 45] | 0% | 0% | 69% | 0% | 0% | 0% | – |
| CCn1nc(-c2c(F)cccc2F)c(-c2c(F)cccc2F)cc1=O [Compound 23] | – | – | – | – | – | – | Test A disease control rating (Zymoseptoria tritici; 250 ppm): 0%; Test B disease control rating ([1]; 250 ppm): 0%; Test C disease control rating ([2]; 250 ppm): 0%; Test D disease control rating (Phakopsora pachyrhizi; 250 ppm): 0%; Test E disease control rating (Botrytis cinerea; 250 ppm): 0%; Test F disease control rating (Alternaria solani; 250 ppm): 0% |
| Cn1nc(-c2cccc(Cl)c2F)c(-c2ccc(F)cc2Cl)c(Cl)c1=O [Compound 105] | 100% | 99% | 99% | 79% | 96% | 99% | – |
| COc1ccc(Cl)c(-c2nn(C)c(=O)c(OC)c2-c2c(F)cccc2F)c1 [Compound 50] | 100% | 98% | 99% | 36% | 96% | 100% | – |
| COc1c(-c2ccc(F)cc2Cl)c(-c2ccccc2Cl)nn(C)c1=O [Compound 160] | 100% | 100% | 100% | 73% | 99% | 0% | – |
| Cn1nc(-c2cc(F)ccc2Cl)c(-c2ccc(F)cc2Cl)cc1=O [Compound 126] | 95% | 74% | 98% | 0% | 98% | 15% | – |
| Cn1nc(-c2ccc(F)cc2Cl)c(-c2ccc(F)cc2Cl)c(CO)c1=O [Compound 168] | 100% | 96% | 72% | 0% | 81% | 0% | – |
| COc1c(-c2ccc(F)cc2Cl)c(-c2ccc(F)cc2Br)nn(C)c1=O [Compound 162] | 100% | 89% | 98% | 13% | 99% | 16% | – |
| Cc1c(-c2ccc(F)cc2Cl)c(-c2cc(F)ccc2Cl)nn(C)c1=O [Compound 128] | 100% | 100% | 100% | 99% | 98% | 100% | – |
| CCc1c(-c2ccc(F)cc2Cl)c(-c2cc(F)ccc2Cl)nn(C)c1=O [Compound 129] | 100% | 100% | 100% | 67% | 99% | 100% | – |
| Cn1nc(-c2ccc(F)cc2Cl)c(-c2ccc(F)cc2Cl)c(CC#N)c1=O [Compound 177] | 88% | 80% | 0% | 0% | 0% | 0% | – |
| Cn1nc(-c2ccccc2)c(-c2c(F)cccc2F)c(Cl)c1=O [Compound 193] | – | – | – | – | – | – | Test A disease control rating (Zymoseptoria tritici; 250 ppm): 97%; Test B disease control rating ([1]; 250 ppm): 100%; Test C disease control rating ([2]; 250 ppm): 100%; Test D disease control rating (Phakopsora pachyrhizi; 250 ppm): 61%; Test E disease control rating (Botrytis cinerea; 250 ppm): 100%; Test F disease control rating (Alternaria solani; 250 ppm): 99% |
